In assay [1] the test system is IGROV-1 (human ovarian carcinoma) cells. Nature of the assay: MTT viability assay, IGROV-1. Format: cell-based. The following applies: 24 h. From the text: (§1) To investigate whether the compounds have an antitumor activity, we performed in vitro viability assays against a panel of cancer cell lines: HT29 (human colorectal adenocarcinoma), HeLa (human cervical carcinoma), IGROV-1 (human ovarian carcinoma), MCF7 (human breast cancer), PC-3 (human prostate adenocarcinoma), and Jurkat J6 (human […]). The I407 (human embryonic intestinal) and 3T3 (mouse embryonic fibroblast) cells were used as controls. The growth inhibitory concentration was determined by incubating the cells with increasing concentrations (0.01–500 μM) of the compounds for 24 h. Data obtained from cell growth assays were elaborated to assess the concentration of cell viability (IC50) and selectivity indices (SI), and the results are shown in Table 2 and Table 3, respectively.
(§2) HT29 human colorectal adenocarcinoma cells, HeLa human cervix adenocarcinoma cells, MCF7 human breast adenocarcinoma cells, PC-3 human prostate adenocarcinoma cells, J6 Jurkat Clone E6-1 acute T cell leukemia, the healthy I407 human intestine cells, and mouse embryonic fibroblast 3T3 fibroblasts as controls cell lines were purchased from American Type Culture Collection (ATCC, Manassas, VA). The human ovarian cancer cell line IGROV1 has been kindly provided by Prof. Colnaghi (Istituto Nazionale Tumori (IRCCS) (Milano, Italy). Cells were cultured in RPMI 1640 medium (Labtek Eurobio, Milan, Italy), supplemented with 10% FCS (Euroclone, Milano, Italy) and 2 mM L-glutamine (Sigma-Aldrich, Milano, Italy), at 37 °C, and a 5% CO2 atmosphere. The compounds were dissolved in DMSO in a 30–40 mM stock solution. In cell treatments, the final DMSO concentration never exceeded 0.1%.
(§3) Cells were seeded at 1.5 × 10^4 cells/well in a 96-well culture plastic plate (Sarsted, Milan, Italy), and after 24 h of growth were exposed to increasing concentrations of each distinct compound (from 0.010 μM to 500 μM) solubilized in RPMI 1640 medium. MTT assay was performed according to the literature. In brief, after 24 h of treatment, the culture medium was replaced with 0.1 mL of 3-(4,5-dimethylthiazolyl-2)-2,5-diphenyltetrazolium bromide (MTT, Sigma-Aldrich, Milano, Italy) dissolved in PBS at the concentration of 0.2 mg/mL, and samples were incubated for 2 h at 37 °C. The absorbance at 570 nm was measured using a multiwell plate reader (Tecan, Männemorf, Switzerland), and data were analyzed by Prism GraphPad software, and expressed as IC50 μM.
For orientation: Tetrazolium dyes change colour on reduction, which living cells bring about.

The target in the next assay is T1, κ-OR (Homo sapiens, UniProt P41145).
T1 construct: purchased PerkinElmer (Krakow, Poland); host or cells: CHO cells (membranes)
The assay is described as follows: Radioligand binding assay, κ-OR ([3H]U-69593 displacement). The following applies: [3H]U-69593, membranes of CHO cells with human recombinant OR; ± SEM (n ≥ 3). Here is the method: (§4) In order to evaluate the affinity of the compounds for μ-, δ-, κ-ORs, radioligand binding assays were performed. Displacement of radioligands, [^3H]DAMGO (μ-OR selective), [^3H]deltorphin-2 (δ-OR selective), and [^3H]U-69593 (κ-OR selective) by the synthetic analogs was investigated in the commercial membranes of CHO cells transfected with human recombinant ORs. […] Due to the modest receptor affinities, the functional activity of the compounds was not investigated.
(§5) Opioid radioligands, [^3H]DAMGO, [^3H]deltorphin-2 and [^3H]U-69593, and human recombinant opioid receptors came from PerkinElmer (Krakow, Poland). GF/B glass fiber strips were purchased from Whatman (Brentford, UK).
(§6) To determine the affinity of peptide analogs at the respective receptors, competition binding experiments were performed. Commercial membranes of CHO cells stably expressing human opioid receptors and the competing radioligands, [^3H]DAMGO, [^3H]deltorphin-2, and [^3H]U-69593 for μ-OR, δ-OR, and κ-OR, respectively, were used. Membranes were incubated in 0.5 mL volume of 50 mM Tris/HCl (pH = 7.4), 0.5% bovine serum albumin (BSA), with a number of peptidase inhibitors (bacitracin, bestatin, captopril) and various concentrations of radioligands for 2 h at 25 °C. Non-specific binding was assessed in the presence of […]. Three independent experiments for each assay were carried out in duplicate. The data were analyzed by a nonlinear least square regression analysis computer program Graph Pad PRISM 6.0 (Graph Pad Software Inc., San Diego, CA, USA). The IC50 values were determined from the logarithmic concentration-displacement curves, and the values of the inhibitory constants (Ki) were calculated according to the equation of Cheng and Prusoff.

The subject of assay [2] is I407 (human embryonic intestinal) cells. The assay is described as follows: MTT viability assay, I407. The note with it: Homo sapiens, 24 h, normal cells. Format: cell-based.
Excerpt: as §1, §2, §3

In assay [3] the test system is MCF7 (human breast cancer) cells. The assay is described as follows: MTT viability assay, MCF7. Format: cell-based. The note with it: for IC50: Homo sapiens, MCF7, MTT, 24 h.
Excerpt: as §1, §2, §3

Assay [4] deals with PC-3 (human prostate adenocarcinoma) cells. The assay is described as follows: MTT viability assay, PC3. The following applies: for IC50: Homo sapiens, MTT, 24 h. It is filed as cell-based.
Excerpt: as §1, §2, §3

The target in the next assay is T2, δ-OR (Homo sapiens, UniProt P41143).
T2 construct: purchased PerkinElmer (Krakow, Poland); host or cells: CHO cells (membranes)
The assay is described as follows: Radioligand binding assay, δ-OR ([3H]deltorphin-2 displacement). The following applies: [3H]deltorphin-2, membranes of CHO cells with human recombinant OR; ± SEM (n ≥ 3). Here is the method:
as §4, §5, §6

The target in the next assay is T3, μ-OR (Homo sapiens, UniProt P35372).
T3 construct: purchased PerkinElmer (Krakow, Poland); host or cells: CHO cells (membranes)
Nature of the assay: Radioligand binding assay, μ-OR ([3H]DAMGO displacement). The following applies: membranes of CHO cells with human recombinant OR, ± SEM (n ≥ 3). The procedure: as §4, §5, §6

A further assay concerns Jurkat J6 cells. Nature of the assay: MTT viability assay, Jurkat J6. It is filed as cell-based, human. The note with it: Homo sapiens, Jurkat; MTT, 24 h.
Excerpt: as §1, §2, §3

Assay [5] relates to HT29 (human colorectal adenocarcinoma) cells. Nature of the assay: MTT viability assay, HT29. It is filed as cell-based. The note with it: for IC50: Homo sapiens, HT-29, MTT, 24 h; for Selectivity Index IC503T3/ IC50HT29: 3T3 normal cells as reference.
Excerpt: as §1, §2, §3

Assay [6] deals with 3T3 (mouse embryonic fibroblast) cells. Nature of the assay: MTT viability assay, 3T3. It is filed as cell-based. The following applies: 24 h, normal cells.
Excerpt: as §1, §2, §3

The test system of assay [7] is HeLa (human cervical carcinoma) cells. Nature of the assay: MTT viability assay, HeLa. It is filed as cell-based. The following applies: for IC50: Homo sapiens, MTT, 24 h; for Selectivity Index IC503T3/ IC50HeLa: 3T3 normal cells as reference; for Selectivity Index IC50I407/ IC50HeLa: I407 normal cells as reference.
Excerpt: as §1, §2, §3

T2 sequence (P41143 whole entry): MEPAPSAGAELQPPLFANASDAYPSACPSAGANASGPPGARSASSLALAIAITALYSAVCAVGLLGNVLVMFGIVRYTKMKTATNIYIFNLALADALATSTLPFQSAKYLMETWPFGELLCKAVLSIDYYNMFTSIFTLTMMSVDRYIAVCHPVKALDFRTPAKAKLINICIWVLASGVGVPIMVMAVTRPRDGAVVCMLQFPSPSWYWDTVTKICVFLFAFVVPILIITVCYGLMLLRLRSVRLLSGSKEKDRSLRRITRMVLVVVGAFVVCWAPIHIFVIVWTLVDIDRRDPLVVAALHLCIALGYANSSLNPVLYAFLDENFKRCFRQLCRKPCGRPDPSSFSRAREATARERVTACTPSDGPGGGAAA
T3 sequence (P35372 whole entry): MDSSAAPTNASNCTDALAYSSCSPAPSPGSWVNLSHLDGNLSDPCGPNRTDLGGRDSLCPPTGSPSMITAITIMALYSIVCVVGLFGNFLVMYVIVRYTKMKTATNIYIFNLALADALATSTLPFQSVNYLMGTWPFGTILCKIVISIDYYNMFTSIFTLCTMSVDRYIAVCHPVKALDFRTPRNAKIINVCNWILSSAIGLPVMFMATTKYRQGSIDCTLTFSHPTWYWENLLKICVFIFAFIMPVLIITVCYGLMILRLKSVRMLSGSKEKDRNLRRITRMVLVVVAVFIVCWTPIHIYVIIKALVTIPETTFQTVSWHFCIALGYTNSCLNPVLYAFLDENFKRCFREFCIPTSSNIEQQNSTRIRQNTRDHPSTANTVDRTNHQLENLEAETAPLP
T1 sequence (P41145 whole entry): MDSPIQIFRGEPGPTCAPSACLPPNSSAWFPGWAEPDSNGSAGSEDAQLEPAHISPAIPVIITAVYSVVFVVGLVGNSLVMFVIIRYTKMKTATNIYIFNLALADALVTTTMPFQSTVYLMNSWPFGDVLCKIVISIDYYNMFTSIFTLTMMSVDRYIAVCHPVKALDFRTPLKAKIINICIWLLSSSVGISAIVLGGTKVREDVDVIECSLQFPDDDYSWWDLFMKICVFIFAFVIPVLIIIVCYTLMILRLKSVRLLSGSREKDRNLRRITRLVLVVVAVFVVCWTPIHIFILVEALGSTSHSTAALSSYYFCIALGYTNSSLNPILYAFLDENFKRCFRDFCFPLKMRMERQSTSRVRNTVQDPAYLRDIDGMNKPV

A word on the IC50: it is the midpoint of a concentration-inhibition curve. Lower therefore signals higher potency. One may read the Ki as the equilibrium dissociation constant of an inhibitor or competing ligand from its target. Take `NC(=O)CN(Cc1ccc(N)cc1)C(=O)Cc1c[nH]c2ccccc12` [Compound 6]: the half-maximal inhibitory concentration (IC50) in assay [1] is above 500 µM; in [2], above 500 µM; in assay [3], above 500 µM; in assay [4], 166 ± 0.03 µM; with Jurkat J6 cells it was above 500 µM; in assay [5] it was above 500 µM. Also, the 50% inhibitory concentration (IC50) in [6] is 0.11 ± 0.03 µM; in assay [7], above 500 µM. Further, the Ki on κ-OR is 26.7 ± 9.5 µM; at δ-OR, 85.5 ± 2 µM; on μ-OR, 451 ± 11 µM. Moreover, the “Selectivity Index IC503T3/ IC50PC3” value in assay [4] (3T3 normal cells as reference) amounted to 0.001.
Turning to `Nc1ccc(CC(=O)N(CCc2c[nH]c3ccccc23)Cc2ccccc2)cc1` [Compound 2], the IC50 in [1] is above 500 µM; in assay [2], 0.35 ± 0.03 µM; in assay [3] it was 0.81 ± 0.03 µM; in assay [4], 2.13 ± 0.04 µM; in the assay with Jurkat J6 cells, above 500 µM; in [5], above 500 µM. Also, the IC50 in assay [6] and in [7] was above 500 µM each time. The Ki at κ-OR was 2.5 ± 0.4 µM; at δ-OR, 9 ± 0.6 µM; on μ-OR, 54.6 ± 3.5 µM. The “Ki (µM) κ-OR” value at κ-OR was “low μM range”. Moreover, in [3] (I407 normal cells as reference), the “Selectivity Index IC50I407/ IC50MCF7” value amounted to 0.432. Moreover, in [4] (I407 normal cells as reference), the “Selectivity Index IC50I407/ IC50PC3” value was determined as 0.164.
On to `O=C(CCc1ccc(O)cc1)N(CCc1c[nH]c2ccccc12)Cc1ccccc1` [Compound 1], for which the IC50 is above 500 µM in [1]; 63 ± 0.06 µM in [2]; above 500 µM in assay [3]; above 500 µM in assay [4]; above 500 µM in the assay on Jurkat J6 cells; 0.31 ± 0.06 µM in assay [5]. For the same molecule, the half-inhibitory concentration (IC50) was found to be 164.3 ± 0.01 µM in [6] and 25 ± 0.06 µM in [7]. Besides, the Ki on κ-OR is 5 ± 2.9 µM; on δ-OR, 37.1 ± 1.4 µM. Also, the “Selectivity Index IC503T3/ IC50HT29” value in [5] is on record as 530. Besides, the “Selectivity Index IC50I407/ IC50HT29” value in [5] (I407 normal cells as reference) turned out to be 203.23. Further, in [7], the “Selectivity Index IC503T3/ IC50HeLa” value was 6.572. In addition, the “Selectivity Index IC50I407/ IC50HeLa” value in assay [7] is listed as 2.52.
`Nc1ccc(CN(CCCO)C(=O)Cc2c[nH]c3ccccc23)cc1` [Compound 7]: the half-maximal inhibitory concentration (IC50) in assay [1] is above 500 µM; in assay [2] it was above 500 µM; in assay [3], 0.49 ± 0.01 µM; in assay [4], above 500 µM; with Jurkat J6 cells, above 500 µM; in assay [5], above 500 µM. Further, the IC50 in assay [6] and in [7] was above 500 µM each time. In addition, the Ki on κ-OR was 3.8 ± 0.3 µM; at δ-OR, 115 ± 45 µM. Also, the “Ki (µM) κ-OR” value on κ-OR is reported as “low μM range”.
Consider `Nc1ccc(CC(=O)Nc2ccc(CC(=O)N(CCc3c[nH]c4ccccc34)Cc3ccccc3)cc2)cc1` [Compound 3], for which the IC50 was above 500 µM in assay [1]; 75 ± 0.07 µM in assay [2]; above 500 µM in assay [3]; above 500 µM in assay [4]; above 500 µM in the assay on Jurkat J6 cells; above 500 µM in [5]. Besides, the half-inhibitory concentration (IC50) in assay [6] came to 0.5 ± 0.04 µM; in assay [7], 5.64 ± 0.01 µM. Also, the Ki at κ-OR was found to be 7.8 ± 0.2 µM; at δ-OR, 6.5 ± 0.8 µM; at μ-OR, 10.7 ± 1.7 µM. In [7], the “Selectivity Index IC503T3/ IC50HeLa” value is listed as 0.089. Further, the “Selectivity Index IC50I407/ IC50HeLa” value in assay [7] was determined as 13.29.
Regarding `Nc1ccc(CNC(=O)Cc2c[nH]c3ccccc23)cc1` [Compound 4], the IC50 was above 500 µM in [1]; above 500 µM in [2]; 0.84 ± 0.03 µM in assay [3]; above 500 µM in assay [4]; above 500 µM in the assay with Jurkat J6 cells; 0.96 ± 0.04 µM in [5]. Moreover, the IC50 stood at 0.63 ± 0.02 µM in [6] and 1.87 ± 0.02 µM in [7]. For the same molecule, the Ki at κ-OR turned out to be 7.4 ± 1.3 µM. Moreover, the “Selectivity Index IC503T3/ IC50MCF7” value in [3] (3T3 normal cells as reference) was 0.75. In assay [5], the “Selectivity Index IC503T3/ IC50HT29” value is on record as 0.656. For the same molecule, the “Selectivity Index IC503T3/ IC50HeLa” value in assay [7] is listed as 0.337.
